*1 amine or outer side, *2 acyl side, *3 side chain or, on linkers, in order; H or OH if unused. Where a SMILES comes first, the peptide text is derived from it. [ ]: non-standard residue; d: D form. The star is where a group is joined. AadUreaLys(Nε) = O=C(O)CCC[C@H](NC(=O)N[C@@H](CCCCN*)C(=O)O)C(=O)O; X4 = O=C(N[C@@H](CCCCN*)C(=O)O)N[C@@H](C[C@@H](F)C(=O)O)C(=O)O; Butanoyl(4-(4-NO2Ph)) = O=C(CCCc1ccc([N+](=O)[O-])cc1)*; DOTA = O=C(O)CN1CCN(CC(=O)O)CCN(CC(=O)*)CCN(CC(=O)O)CC1; Ala(9-anthryl) = N[C@@H](Cc1c2ccccc2cc2ccccc12)C(=O)O; Butanoyl(4-(4-MeO-phenyl)) = COc1ccc(CCCC(=O)*)cc1; X1 = O=C(C1CCC(CN[*:1])CC1)[*:2]; X3 = O=C(C1CCC(N[*:1])CC1)[*:2]
Molecular target: T1, PSMA (Homo sapiens, UniProt Q04609)
T1 construct: endogenous in cells; host or cells: LNCaP cells
T1 sequence (Q04609 whole entry): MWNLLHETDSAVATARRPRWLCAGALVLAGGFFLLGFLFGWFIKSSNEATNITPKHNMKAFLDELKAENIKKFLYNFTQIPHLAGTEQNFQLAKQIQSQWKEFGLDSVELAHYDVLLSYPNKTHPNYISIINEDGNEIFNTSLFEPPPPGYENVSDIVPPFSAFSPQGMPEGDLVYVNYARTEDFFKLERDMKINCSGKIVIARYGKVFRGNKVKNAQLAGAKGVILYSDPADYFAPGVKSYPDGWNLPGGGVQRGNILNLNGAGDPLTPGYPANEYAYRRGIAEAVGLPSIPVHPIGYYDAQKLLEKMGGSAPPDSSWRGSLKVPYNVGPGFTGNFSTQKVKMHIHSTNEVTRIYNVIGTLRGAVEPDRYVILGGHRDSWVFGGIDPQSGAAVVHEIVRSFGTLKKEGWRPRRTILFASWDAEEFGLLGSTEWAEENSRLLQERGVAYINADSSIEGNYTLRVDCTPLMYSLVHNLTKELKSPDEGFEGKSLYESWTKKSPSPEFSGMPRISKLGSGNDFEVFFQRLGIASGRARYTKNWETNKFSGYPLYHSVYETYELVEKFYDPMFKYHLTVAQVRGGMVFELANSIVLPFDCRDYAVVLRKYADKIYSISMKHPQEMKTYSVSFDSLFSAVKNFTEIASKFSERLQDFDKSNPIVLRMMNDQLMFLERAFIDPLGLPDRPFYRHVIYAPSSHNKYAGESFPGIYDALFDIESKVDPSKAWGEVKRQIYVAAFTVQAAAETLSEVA
Assay: In vitro PSMA competitive binding assay, LNCaP cells, [18F]DCFPyL radioligand
Conditions: [18F]DCFPyL 0.1 nM, read-out: PSMA binding affinity (Ki)
Experimental: Inhibition constants (Ki) to PSMA were measured by in vitro competition binding assays using [^18F]DCFPyL as the radioligand. LNCaP cells which were plated onto a 24-well poly-D-lysine coated plate for 48 h (400,000/well). Growth medium was removed and replaced with HEPES buffered saline (50 mM HEPES, pH 7.5, 0.9% sodium chloride). After 1 h, [^18F]DCFPyL (0.1 nM) was added to each well (in triplicate) containing varied concentrations ([…]) of tested compounds The assay mixtures were incubated for 1 h at 37° C. with gentle agitation followed by two washes with cold HEPES buffered saline. A trypsin solution (0.25%, 400 μL) was then added to each well to harvest the cells. Radioactivity was measured by gamma counting and Ki values calculated using the ‘one site—fit Ki’ built-in model in Prism 8 (GraphPad).

SMILES | Ki
COc1ccc(CCCC(=O)NCC(=O)N[C@@H](CCCCNC(=O)COCCOCCNC(=O)CN2CCN(CC(N)=O)CCN(CC(=O)O)CCN(CC(=O)O)CC2)C(=O)NCC2CCC(C(=O)N[C@@H](Cc3c4ccccc4cc4ccccc34)C(=O)NCCCC[C@H](NC(=O)N[C@@H](CCCC(=O)O)C(=O)O)C(=O)O)CC2)cc1 (stereo partly drawn) [CCZ02005] | 2.08 nM
O=C(O)CCC[C@H](NC(=O)N[C@@H](CCCCNC(=O)[C@H](Cc1c2ccccc2cc2ccccc12)NC(=O)C1CCC(NC(=O)CN2CCN(CC(=O)O)CCN(CC(=O)O)CCN(CC(=O)O)CC2)CC1)C(=O)O)C(=O)O (stereo partly drawn) [CCZ02012] | 1.67 nM
O=C(O)CCC[C@H](NC(=O)N[C@@H](CCCCNC(=O)[C@H](Cc1c2ccccc2cc2ccccc12)NC(=O)C1CCC(NC(=O)CNC(=O)[C@H](CCCCNC(=O)CN2CCN(CC(=O)O)CCN(CC(=O)O)CCN(CC(=O)O)CC2)NC(=O)CNC(=O)CCCc2ccc([N+](=O)[O-])cc2)CC1)C(=O)O)C(=O)O (stereo partly drawn) [CCZ02021] ({Butanoyl(4-(4-NO2Ph))}-GK(DOTA)G[X3][Ala(9-anthryl)]-{AadUreaLys(Nε)}) | 5.71 nM

The next compounds have a lower Ki than those just listed; values first:

Ki | SMILES
1.53 ± 0.21 nM | O=C(O)CCC[C@H](NC(=O)N[C@@H](CCCCNC(=O)[C@H](Cc1c2ccccc2cc2ccccc12)NC(=O)C1CCC(NC(=O)CN2CCN(CC(=O)O)CCN(CC(=O)O)CCN(CC(=O)O)CC2)CC1)C(=O)O)C(=O)O (stereo partly drawn) [CCZ02013]
1.09 ± 0.3 nM | COc1ccc(CCCC(=O)NCC(=O)N[C@@H](CCCCNC(=O)CN2CCN(CC(=O)O)CCN(CC(=O)O)CCN(CC(=O)O)CC2)CC(=O)NCC2CCC(C(=O)N[C@@H](Cc3c4ccccc4cc4ccccc34)C(=O)NCCCC[C@H](NC(=O)N[C@@H](CCCC(=O)O)C(=O)O)C(=O)O)CC2)cc1 (stereo partly drawn) [CCZ02015]
0.48 ± 0.1 nM | COc1ccc(CCCC(=O)NCC(=O)N[C@@H](CCCCNC(=O)CN2CCN(CC(=O)O)CCN(CC(=O)O)CCN(CC(=O)O)CC2)C(=O)NCC(=O)NCC2CCC(C(=O)N[C@@H](Cc3c4ccccc4cc4ccccc34)C(=O)NCCCC[C@H](NC(=O)N[C@@H](C[C@@H](F)C(=O)O)C(=O)O)C(=O)O)CC2)cc1 (stereo partly drawn) [CCZ02008] ({Butanoyl(4-(4-MeO-phenyl))}-GK(DOTA)G[X1][Ala(9-anthryl)]-X4)
